Experimental data from US20050065213A1 (priority 2001, published 2005).
pIC50: −log10 of the molar value. Like-named read-outs stand apart in the source and are kept apart here.

Tests used:
tubulin [1] = assay: Tubulin assembly inhibition assay; format: biochemical; conditions: for pIC50: tubulin assembly assay, Table 14, read-out: IC(TA)50; for IC50: tubulin assembly
[2] = Flow cytometry, percentage of cells in the phases of the cell cycle; format: cell-based; conditions: for % Cells G2-M: control 12.08; for % Cells S-phase: control 32.87; for % Cells G0-G1: control 55.05
From the text: Tables 14 and 15 show the results of tubulin assembly assays and flow cytometry studies on selected compounds of the present invention.

tubulin [3] = assay: Colchicine competition assay; format: binding
From the text: The compounds have been further tested for their performance in colchicine competition assays, and the results tabulated in Tables 9 to 13.

K562 cell line = assay: Cytotoxicity (IC50) assay against the K562 cell line; format: cell-based; conditions: for activity (in words): cytotoxicity, qualitative statements; for pIC50: Homo sapiens, K562 cell line, read-out: IC50 values in the cytotoxicity tests
Description: Compounds based on the aurone structure were prepared as conformationally restricted analogues of the chalcones. They were prepared from the appropriate benzofuranone.

[4] = test system: P388 murine leukaemia cell line; conditions: cell line not stated for this statement; cited from earlier work
[5] = test system: H460 human non small cell lung cells; assay: H460 xenograft in nude mice; format: in vivo
H460 xenograft = H460 xenograft mice, X-Rays plus drug; format: in vivo; conditions: X-Ray plus drug treated group, FIG. 6
From the text: Whilst X-Ray treatment was effective immediately after treatment, fresh tumour growth became evident by 36 days.

[6] = corrected values scaled by a factor of 5, read-out: IC50 μM (corrected)
[7] = original experimental value, read-out: IC50 μM (original)

Row | SMILES | IC50 (tubulin [1]; [6]) [µM] | IC50 (tubulin [1]; [7]) [µM] | Colchicine competition, Drug:Protein Ratio 1:1 (tubulin [3]) | Colchicine competition, Drug:Protein Ratio 10:1 (tubulin [3]) | further results
1 | COc1ccc(/C=C(\C)C(=O)c2cc(OC)c(OC)c(OC)c2)cc1[N+](=O)[O-] [MW68] |  |  |  |  | pIC50 (tubulin [1]): < 5.00; % Cells Debris [2]: 11.27%; % Cells G2-M [2]: 28.29%; % Cells S-phase [2]: 35.36%; % Cells G0-G1 [2]: 36.35%
2 | COc1ccc(C=CC(=O)c2ccc(OC)c(OC)c2OC)cc1O [DR8, (E)-3-(3″-Hydroxy-4″-methoxyphenyl)-1-(2′,3′,4′-trimethoxyphenyl)-2-propen-1-one] | 2.3 | 0.45 |  |  | melting point: 85 to 86 °C
3 | COc1cc2c(c(OC)c1OC)OC(=Cc1ccc(O)c(O)c1)C2=O [DR31] | > 100 | > 50 |  |  | 
4 | CO/C(=C\c1ccc(OC)c(F)c1)C(=O)c1cc(OC)c(OC)c(OC)c1 [DR14, (Z)-3-(3″-Fluoro-4″-methoxyphenyl)-2-methoxy-1-(3′,4′,5′-trimethoxyphenyl)-2-propen-1-one] | 2.4 | 0.47 | 22 | 8 | melting point: 110 to 112 °C
6 | COc1ccc(-c2cc(=O)c3c(OC)c(OC)c(OC)cc3o2)cc1O [DR33, 2-(3′-Hydroxy-4′-methoxyphenyl)-5,6,7-trimethoxy-4H-chromen-4-one] | > 100 | > 50 |  |  | 
7 | COc1ccc(/C=C/C(=O)c2cc(OC)c(OC)c(OC)c2)cc1N [MW65, (E)-3-(3″-Amino-4″-methoxyphenyl)-1-(3′,4′,5′-trimethoxyphenyl)-2-propen-1-one] |  |  |  |  | % Cells Debris [2]: 14.10%; % Cells G2-M [2]: 18.52%; % Cells S-phase [2]: 33.18%; % Cells G0-G1 [2]: 48.30%; melting point: 90 to 91 °C
8 | COc1ccc(C=C2Oc3cc(OC)c(OC)c(OC)c3C2=O)cc1F [DR24] | > 100 | > 50 |  |  | 
9 | COc1ccc(C2CC(=O)c3cc(OC)c(OC)c(OC)c32)cc1F (stereo not drawn) [DR59] | 20 | 4 | 100 | 61 | 
10 | COc1ccc(/C=C(\C)C(=O)c2cc(OC)c(OC)c(OC)c2)cc1OP(=O)([O-])[O-].[Na+].[Na+] [SD174b, Disodium 3′-phosphate salt of (E)-1-(3′-Hydroxy-4′-methoxyphenyl)-2-methyl-3-(3″,4″,5″-trimethoxyphenyl)prop-1-en-3-one] |  |  |  |  | activity (in words) (K562 cell line): potently active
11 | COc1ccc(C2CCc3cc(OC)c(OC)c(OC)c32)cc1N (stereo not drawn) [MW82] |  |  |  |  | pIC50 (tubulin [1]): < 5.00; % Cells Debris [2]: 18.58%; % Cells G2-M [2]: 23.34%; % Cells S-phase [2]: 36.26%; % Cells G0-G1 [2]: 40.40%
12 | COc1ccc(-c2cc(=O)c3cc(OC)c(OC)c(OC)c3o2)cc1O [DR36, 2-(3′-Hydroxy-4′-methoxyphenyl)-6,7,8-trimethoxy-4H-chromen-4-one] | > 100 | 25 | 100 | 43 | melting point: 199 to 200 °C
13 | COc1ccc(C=C2Oc3cc(OC)c(OC)c(OC)c3C2=O)cc1O [DR23] | > 100 | > 50 |  |  | 
14 | COc1ccc(/C=C/c2cc(OC)c(OC)c(OC)c2)cc1O [trans-combretastatin A-4] |  |  |  |  | cell growth inhibition (in words) [4]: μM range
15 | COc1ccc(/C=C(\C)C(O)c2cc(OC)c(OC)c(OC)c2)cc1O (stereo not drawn) [MW70] |  |  |  |  | pIC50 (tubulin [1]): < 5.00; % Cells Debris [2]: 15.27%; % Cells G2-M [2]: 23.70%; % Cells S-phase [2]: 32.80%; % Cells G0-G1 [2]: 43.50%
16 | COc1cc(C(=O)/C(C)=C/c2cc(F)c(OC)c(F)c2)cc(OC)c1OC [DR6, (E)-3-(3″, 5″-Difluoro-4″-methoxyphenyl)-2-methyl-1-(3′, 4′,5′-trimethoxyphenyl)-2-propen-1-one] | 12 | 2.4 | 33 | 25 | 
17 | CO/C(=C\c1ccc(OC)c(O)c1)C(=O)c1cc(OC)c(OC)c(OC)c1 [DR13, (Z)-3-(3″-Hydroxy-4″-methoxyphenyl)-2-methoxy-1-(3′,4′,5′-timethoxyphenyl)-2-propen-1-one] | 2.6 | 0.51 | 12 | 5 | melting point: 120 to 122 °C
18 | COc1ccc(/C=C(\C)C(=O)c2cc(OC)c(OC)c(OC)c2)cc1F [DR5, (E)-3-(3″-Fluoro-4″-methoxyphenyl)-2-methyl-1-(3′,4′,5′-trimethoxyphenyl)-2-propen-1-one] | 3.5 | 0.7 | 14 | 6 | activity (in words) (K562 cell line): most active fluorinated analogue; necrosis in tumour ([5]; 24 hours after treatment with 0.75 MTD): necrosis in H460 cancer cells; adverse side effects on healthy surrounding tissue ([5]; H460 xenograft nude mice): no adverse side effects on healthy surrounding tissue; tumour volume / potency with concomitant X-Rays (H460 xenograft): some initial increase in tumour volume between days 27 and 32, though this was followed by subsequent decrease to a steady baseline at day 34; tumour volume / potency with concomitant X-Rays (H460 xenograft; listed as DRA 212): Further improvement in the potency
19 | COc1ccc(C2CC(=O)c3cc(OC)c(OC)c(OC)c32)cc1N (stereo not drawn) [MW74, 3-(3′-Amino-4′-methoxyphenyl)-4,5,6-trimethoxy-1-indanone] |  |  |  |  | pIC50 (tubulin [1]): ~5.00; % Cells Debris [2]: 12.72%; % Cells G2-M [2]: 29.10%; % Cells S-phase [2]: 33.76%; % Cells G0-G1 [2]: 37.14%
20 | COc1ccc(C=C2Oc3c(cc(OC)c(OC)c3OC)C2=O)cc1F [DR28] | > 100 | > 50 |  |  | pIC50 (K562 cell line): 6.96
21 | COc1ccc(CC(C)C(=O)c2cc(OC)c(OC)c(OC)c2)cc1O (stereo not drawn) [MW71] |  |  |  |  | pIC50 (tubulin [1]): 5.40; % Cells Debris [2]: 19.31%; % Cells G2-M [2]: 28.08%; % Cells S-phase [2]: 36.09%; % Cells G0-G1 [2]: 35.84%
22 | COc1ccc(/C=C2\Oc3c(cc(OC)c(OC)c3OC)C2=O)cc1O [DR27, 2-[(Z)-(3′-Hydroxy-4′-methoxyphenyl)methylidene]-5,6,7-trimethoxy-1-benzofuran-3-one] | > 100 | 22 | 78 | 59 | pIC50 (K562 cell line): 7.30; melting point: 192 to 193 °C
23 | CO/C(=C\c1cc(F)c(OC)c(F)c1)C(=O)c1cc(OC)c(OC)c(OC)c1 [DR15, (Z)-3-(3″,5″-Difluoro-4″-methoxyphenyl)-2-methoxy-1-(3′,4′,5′-trimethoxyphenyl)-2-propen-1-one] | 8.5 | 1.7 | 59 | 41 | 
24 | COc1ccc(/C=C/C(=O)c2cc(OC)c(OC)c(OC)c2)cc1OP(=O)([O-])[O-].[Na+].[Na+] [SD174a, Disodium 3′-phosphate salt of (E)-1-(3′-Hydroxy-4′-methoxyphenyl)-3-(3″,4″,5″-trimethoxyphenyl)prop-1-en-3-one] |  |  |  |  | activity (in words) (K562 cell line): potently active
25 | COc1ccc(C2CC(O)c3cc(OC)c(OC)c(OC)c32)cc1F (stereo not drawn) [DR60] | > 100 | > 50 |  |  | 
